Patent US6180844A, “Composition containing fluorescence-generating substrate” (Aisin Seiki Kabushiki Kaisha, priority 1998, dated 2001)

Tested on: human chromosome
Experiment: In-situ hybridization of a human chromosome: fluorescence-generating substrate reacted with probe-bonded peroxidase and hydrogen peroxide, observed by fluorescence microscope
Design: key to Intensity of Fluorescence / Binding: +++: Very strong.; ++: Strong.; +: Weak.; ±: Very weak.; -: Not detected
Conditions: for Binding: binding of the substrate to the chromosome, same reaction conditions; for Intensity of Fluorescence: human chromosome sample from peripheral blood lymphocytes, substrate in 0.01% hydrogen peroxide, room temperature 30 minutes, fluorescence microscope; for fluorescent signals observed: summary of Table 1
From the text: A human chromosome sample was hybridized with a digoxigenin-labeled, full-length human DNA probe, to which was bonded a peroxidase-labeled anti-digoxigenin antibody. This was reacted with any of fluorescence-generating substrates of the invention (Compounds 1 to 11) or with a comparative substrate of a commercially available, water-soluble fluorescent substrate, 3-(4-hydroxyphenyl)propionic acid (HPPA). […] The full-length human DNA probe hybridizes entirely with the human chromosome. Therefore, if the fluorescence-generating substrates tested herein are reacted in a reaction system comprising peroxidase and hydrogen peroxide, the entire chromosome in the system shall be seen to emit fluorescence in the fluorescence-microscopic observation.
The procedure is as follows:
Human chromosome samples were prepared from cultured human peripheral blood lymphocytes. Full-length human DNA was labeled with digoxigenin through nick translation, collected through ethanol precipitation, and dissolved in formamide to prepare a digoxigenin-labeled, full-length human DNA probe. Each human chromosome sample was immersed in a denaturing solution kept heated at 70° C., for 2 minutes, and then rapidly cooled by putting it into 70% ethanol cooled to 4° C., whereby the double-stranded DNA of the sample was kept dissociated in a single-stranded condition. The probe was kept in a water bath at 75° C. for 10 minutes, and then rapidly cooled in ice water with 5 minutes, whereby the double-stranded DNA of the probe was kept dissociated in a single-stranded condition. This probe was mixed with a hybridization solution, put on the human chromosome sample, and reacted with it overnight at 37° C. (in-situ hybridization).
After having been hybridized, the system was washed with a solution of 50% formamide/2×SSC at 37° C. for 15 minutes, then with 2×SSC at room temperature for 15 minutes, and then with 4×SSC at room temperature for 5 minutes, thereby removing the excess, non-hybridized probe therefrom. Next, a pcroxidase-labeled anti-digoxigenin antibody was diluted with a 1% blocking solution into a 1/100 dilution, and the resulting enzyme-labeled antibody dilution was put on the sample, and maintained at 37° C. for 1 hour. The excess enzyme antibody not bonded to the probe was removed by washing the system with a washing solution containing a surfactant. Any of the fluorescence-generating substrates (Compounds 1 to 11) of the invention and a commercially-available, water-soluble fluorescent substrate, HPPA was dissolved in a reactant solution containing 0.01% hydrogen peroxide […], and the resulting fluorescent substrate solution was put on the sample and reacted with it at room temperature for 30 minutes. After reacting in the reaction system comprising the probe-bonded peroxidase and hydrogen peroxide, the fluorescence-generating substrate formed a new compound which was fixed on the chromosome and emitted fluorescence, which was observed using a fluorescence microscopic.
The full-length human DNA probe hybridizes with the entire chromosome, with the result that the entire chromosome was stained with the fluorescence-generating substrate. Sample were processed with any of the fluorescent substrates (Compounds 1 to 11) as well as the commercially-available, water-soluble fluorescent substrate, […]. […] In addition, the binding of the substrate to the chromosome was checked.

Binding | Intensity of Fluorescence | Compound | fluorescent signals observed | binding of the enzymatic reaction product to the chromosome (product after the enzymatic reaction)
++ | ++ | Cc1cc(O)ccc1NC(=O)c1ccccc1C [Compound 9] | – | –
++ | ++ | Cc1cc(C)c(C(=O)Nc2ccc(O)cc2C)c(C)c1 [Compound 10, 4-hydroxy-2-methylphenyl-2,4,6-trimethylbenzamide] | – | –
+++ | +++ | O=C(O)CCCCCNC(=O)CCc1ccc(O)cc1 [Compound 11, 6-{3-(4-hydroxyphenyl)propionamido}hexanoic acid] | high-intensity fluorescent signals were observed | –
+ | ± | O=C(O)CCc1ccc(O)cc1 [HPPA, 3-(4-hydroxyphenyl)propionic acid, reference compound] | few fluorescent signals were detected | soluble in water or could not bind to the chromosome
